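Dose response: 5 concentrations. Exposure: 48 h. Format: 96-well plates. Endpoint: linear interpolation; highest concentration if not reached. At the GI50, growth is halved.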 The source made the active and inactive calls. Cut-off read from the data, not from the text of the source: active = GI50 up to about 1.1 µM and inactive = higher. Residues, ends and D or L forms follow the SMILES beside them. *: point of attachment. Cbz = O=C(OCc1ccccc1)*
Tests used:
Assay in all cases: DTP human tumour cell line panel, 48 h
HCT-116 = test system: HCT-116
HOP-62 = test system: HOP-62
SW-620 = test system: SW-620
K562 = test system: K562
UO-31 = test system: UO-31
OVCAR-5 = test system: OVCAR-5
PC-3 = test system: PC-3
NCI/ADR-RES = test system: NCI/ADR-RES
MCF7 = test system: MCF7
SR = test system: SR
U-251 = test system: U-251
OVCAR-3 = test system: OVCAR-3
786-0 = test system: 786-0
BT-549 = test system: BT-549
HT-29 = test system: HT-29
MOLT-4 = test system: MOLT-4
MDA-N = test system: MDA-N
A498 = test system: A498
T47D = test system: T47D
OVCAR-4 = test system: OVCAR-4

| Structure (SMILES) | GI50 (HCT-116) | GI50 (HOP-62) | GI50 (SW-620) | GI50 (K562) | GI50 (UO-31) | GI50 (OVCAR-5) | GI50 (PC-3) | GI50 (NCI/ADR-RES) | GI50 (MCF7) | GI50 (SR) | GI50 (U-251) | GI50 (OVCAR-3) | GI50 (786-0) | GI50 (BT-549) | GI50 (HT-29) | GI50 (MOLT-4) | GI50 (MDA-N) | GI50 (A498) | GI50 (T47D) | GI50 (OVCAR-4) |
| --- | --- | --- | --- | --- | --- | --- | --- | --- | --- | --- | --- | --- | --- | --- | --- | --- | --- | --- | --- | --- |
| CC(CO)(Nc1ccc([N+](=O)[O-])cc1[N+](=O)[O-])C(=O)O (stereo not drawn) | 63.2 µM (inactive) | 49.1 µM (inactive) | 16.7 µM (inactive) | 19.1 µM (inactive) | 15.9 µM (inactive) | 32.6 µM (inactive) | 64.6 µM (inactive) | 35.5 µM (inactive) | 17.5 µM (inactive) | 12.1 µM (inactive) | 22.9 µM (inactive) | 22.2 µM (inactive) | 71 µM (inactive) | 29.5 µM (inactive) | 16.7 µM (inactive) | – | – | – | – | – |
| Cc1cccc(N(C(=O)Nc2ccc(Cl)c(Cl)c2)C2=NCC(C)S2)c1 (stereo not drawn) | 43.1 µM (inactive) | > 100 µM (inactive) | 32.1 µM (inactive) | 24.8 µM (inactive) | > 100 µM (inactive) | > 100 µM (inactive) | 43.9 µM (inactive) | 28 µM (inactive) | 17 µM (inactive) | 32.6 µM (inactive) | 62.5 µM (inactive) | 74.5 µM (inactive) | 31.8 µM (inactive) | – | 11.4 µM (inactive) | 16.2 µM (inactive) | 32.9 µM (inactive) | 57.8 µM (inactive) | 9.84 µM (inactive) | 41.6 µM (inactive) |
| Cc1ccccc1C1CC(=O)CC(c2ccccc2C)C12C(=O)NC(=S)NC2=O (stereo not drawn) | 20.5 µM (inactive) | 27.5 µM (inactive) | 28.5 µM (inactive) | 39.5 µM (inactive) | 17.9 µM (inactive) | 50.1 µM (inactive) | 22.3 µM (inactive) | 30.3 µM (inactive) | 32 µM (inactive) | 37.2 µM (inactive) | 30.7 µM (inactive) | 29 µM (inactive) | 34.9 µM (inactive) | – | 22.3 µM (inactive) | 42.4 µM (inactive) | 23.6 µM (inactive) | 22.9 µM (inactive) | 42.1 µM (inactive) | 37.5 µM (inactive) |
| C=CCC(CC=O)(C(=O)OCC)C(=O)OCC | > 100 µM (inactive) | > 100 µM (inactive) | > 100 µM (inactive) | > 100 µM (inactive) | 76.2 µM (inactive) | > 100 µM (inactive) | > 100 µM (inactive) | > 100 µM (inactive) | > 100 µM (inactive) | > 100 µM (inactive) | > 100 µM (inactive) | > 100 µM (inactive) | > 100 µM (inactive) | – | > 100 µM (inactive) | > 100 µM (inactive) | > 100 µM (inactive) | > 100 µM (inactive) | – | > 100 µM (inactive) |
| O=C(/C=C/c1c(O)ccc2ccccc12)c1cccc(O)c1 | > 100 µM (inactive) | > 100 µM (inactive) | > 100 µM (inactive) | 44.3 µM (inactive) | > 100 µM (inactive) | > 100 µM (inactive) | – | – | – | 42.7 µM (inactive) | > 91.6 µM (inactive) | > 76.9 µM (inactive) | > 100 µM (inactive) | – | > 100 µM (inactive) | 47 µM (inactive) | – | > 100 µM (inactive) | – | > 70 µM (inactive) |
| COc1cc(NCC(C#N)C#N)ccc1/N=N/c1ccc(Cl)cc1 | 23.7 µM (inactive) | 19.9 µM (inactive) | 20.8 µM (inactive) | 22.1 µM (inactive) | 16.9 µM (inactive) | 21.8 µM (inactive) | – | – | – | 12.8 µM (inactive) | 18.5 µM (inactive) | 20.6 µM (inactive) | 20 µM (inactive) | – | 16.4 µM (inactive) | 15.5 µM (inactive) | – | 44.7 µM (inactive) | – | 37.1 µM (inactive) |
| Cc1ccc(/C=C2\CN(C)CC3=C2N=C(S)NC3c2ccc(C)cc2)cc1 (stereo not drawn) | 21.8 µM (inactive) | 40.5 µM (inactive) | 61.2 µM (inactive) | 23.3 µM (inactive) | 55.1 µM (inactive) | > 100 µM (inactive) | 32.1 µM (inactive) | 23.8 µM (inactive) | 24.7 µM (inactive) | < 0.01 µM (active) | 42.8 µM (inactive) | 22.1 µM (inactive) | 21 µM (inactive) | – | 30.8 µM (inactive) | – | 13.5 µM (inactive) | > 100 µM (inactive) | > 100 µM (inactive) | 14 µM (inactive) |
| CCOC(=O)c1ccc(Nc2nc3ccccc3nc2-c2cccs2)cc1 | 80.5 µM (inactive) | > 100 µM (inactive) | > 10 µM (inactive) | 46.8 µM (inactive) | 73.6 µM (inactive) | > 100 µM (inactive) | 24.8 µM (inactive) | 35.6 µM (inactive) | 34 µM (inactive) | 26.9 µM (inactive) | 97.9 µM (inactive) | 31 µM (inactive) | 50.7 µM (inactive) | – | – | 23.6 µM (inactive) | 19 µM (inactive) | – | 16.9 µM (inactive) | – |
| COC(=O)C(Cc1ccccc1I)C1=CCC2(CC1)OCCO2 (stereo not drawn) | – | 28.9 µM (inactive) | 44.4 µM (inactive) | 27.3 µM (inactive) | 23.3 µM (inactive) | 11.3 µM (inactive) | 26.9 µM (inactive) | 18.6 µM (inactive) | 27.7 µM (inactive) | 18 µM (inactive) | 45.4 µM (inactive) | 20.8 µM (inactive) | 34.3 µM (inactive) | – | 31.8 µM (inactive) | 21.4 µM (inactive) | 28.6 µM (inactive) | 74.1 µM (inactive) | 12.3 µM (inactive) | 37.2 µM (inactive) |
| CCOC1CCC2C(CCC(/C=C/c3ccc(O)c4ncccc34)N2C)C1 (stereo not drawn) | – | 8.71 µM (inactive) | 7.59 µM (inactive) | 4.6 µM (inactive) | 26.1 µM (inactive) | 33.2 µM (inactive) | 8.75 µM (inactive) | > 100 µM (inactive) | 4.23 µM (inactive) | 3.21 µM (inactive) | 15.4 µM (inactive) | – | 6.44 µM (inactive) | – | 7.03 µM (inactive) | 3.72 µM (inactive) | 38.5 µM (inactive) | – | 9.86 µM (inactive) | – |
| CC(C)C1=CC23CCC4C(C)(C(=O)O)CCCC4(C)C2CC1C1C(=O)N(c2ccc(N4C(=O)C5C6CC7C8(C)CCCC(C)(C(=O)O)C8CCC7(C=C6C(C)C)C5C4=O)cc2)C(=O)C13 (stereo not drawn) | 3.38 µM (inactive) | 5.12 µM (inactive) | 8.41 µM (inactive) | 4.35 µM (inactive) | 18.5 µM (inactive) | 10.3 µM (inactive) | 3.2 µM (inactive) | – | 3.33 µM (inactive) | 3.59 µM (inactive) | 4.28 µM (inactive) | 5.71 µM (inactive) | 13.1 µM (inactive) | – | 2.45 µM (inactive) | 3.51 µM (inactive) | 4.43 µM (inactive) | 11.2 µM (inactive) | 12.1 µM (inactive) | 10.4 µM (inactive) |
| CCOC(=O)CCC(NC(=O)OCc1ccccc1)C(=O)NC(CCC(=O)OCC)C(=O)OCC (stereo not drawn) (Cbz-Glu(OEt)-Glu(OEt)-OEt; configuration not given here) | > 100 µM (inactive) | > 100 µM (inactive) | > 100 µM (inactive) | > 100 µM (inactive) | > 100 µM (inactive) | > 100 µM (inactive) | > 100 µM (inactive) | > 100 µM (inactive) | > 100 µM (inactive) | > 100 µM (inactive) | > 100 µM (inactive) | > 100 µM (inactive) | > 100 µM (inactive) | – | > 100 µM (inactive) | > 100 µM (inactive) | > 100 µM (inactive) | > 100 µM (inactive) | > 100 µM (inactive) | > 100 µM (inactive) |
